Measured values from US5635477A, “Cyclic compounds useful as inhibitors of platelet glycoprotein IIB/IIIA” (The DuPont Merck Pharmaceutical Company, priority 1995, dated 1997).
Starred links: 1 amine or outer side, 2 acyl side, 3 side chain; linkers in the order of their positions; H or OH if unused. Non-standard residues stand in square brackets, D forms with d. Residues, ends and D or L forms follow the SMILES beside them. NMePhe(4-CH2NH2) = CN[C@@H](Cc1ccc(CN)cc1)C(=O)O; X5 = O=C(c1ccc(I)c(CN[*:1])c1)[*:2]; X4 = O=C(c1cc(CN[*:1])ccc1Cl)[*:2]; NMeOrn(Me) = CNCCC[C@H](NC)C(=O)O; NMeR = CN[C@@H](CCCNC(=N)N)C(=O)O; X3 = Cc1ccc(CN[*:1])cc1C(=O)[*:2]; dPhg = N[C@@H](C(=O)O)c1ccccc1; dNle = CCCC[C@@H](N)C(=O)O; 3Amb = NCc1cccc(C(=O)O)c1; dAbu = CC[C@@H](N)C(=O)O; βAla = NCCC(=O)O; Sar = CNCC(=O)O

Biological target: agonist-induced platelet aggregation (Homo sapiens, UniProt P05106+P08514)
Sequence (P08514 32-1039): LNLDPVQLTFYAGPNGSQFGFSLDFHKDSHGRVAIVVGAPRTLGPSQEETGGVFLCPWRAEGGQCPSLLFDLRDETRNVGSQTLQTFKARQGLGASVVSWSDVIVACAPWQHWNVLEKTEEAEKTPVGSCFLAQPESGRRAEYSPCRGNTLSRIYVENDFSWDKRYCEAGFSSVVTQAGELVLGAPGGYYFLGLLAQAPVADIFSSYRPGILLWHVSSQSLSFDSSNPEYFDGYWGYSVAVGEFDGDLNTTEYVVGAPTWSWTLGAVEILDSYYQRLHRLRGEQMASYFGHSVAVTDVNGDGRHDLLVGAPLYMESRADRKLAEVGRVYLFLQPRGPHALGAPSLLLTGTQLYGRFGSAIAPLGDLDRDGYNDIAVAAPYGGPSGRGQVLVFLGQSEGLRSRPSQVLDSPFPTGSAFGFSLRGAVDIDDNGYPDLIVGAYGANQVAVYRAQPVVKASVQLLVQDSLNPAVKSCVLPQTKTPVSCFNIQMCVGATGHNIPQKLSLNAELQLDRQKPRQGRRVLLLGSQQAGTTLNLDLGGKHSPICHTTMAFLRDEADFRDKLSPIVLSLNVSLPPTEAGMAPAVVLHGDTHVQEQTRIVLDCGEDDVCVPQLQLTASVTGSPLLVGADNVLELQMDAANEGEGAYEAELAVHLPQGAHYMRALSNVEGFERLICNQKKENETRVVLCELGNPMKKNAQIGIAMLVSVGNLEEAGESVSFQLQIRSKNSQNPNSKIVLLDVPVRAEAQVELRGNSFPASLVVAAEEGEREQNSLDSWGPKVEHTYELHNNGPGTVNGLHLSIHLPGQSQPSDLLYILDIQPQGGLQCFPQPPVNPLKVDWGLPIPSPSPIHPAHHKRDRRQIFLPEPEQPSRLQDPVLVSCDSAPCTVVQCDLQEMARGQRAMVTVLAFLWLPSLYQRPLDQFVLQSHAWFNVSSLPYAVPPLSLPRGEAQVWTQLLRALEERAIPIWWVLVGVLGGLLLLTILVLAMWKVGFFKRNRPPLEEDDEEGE
Sequence (P05106 27-788): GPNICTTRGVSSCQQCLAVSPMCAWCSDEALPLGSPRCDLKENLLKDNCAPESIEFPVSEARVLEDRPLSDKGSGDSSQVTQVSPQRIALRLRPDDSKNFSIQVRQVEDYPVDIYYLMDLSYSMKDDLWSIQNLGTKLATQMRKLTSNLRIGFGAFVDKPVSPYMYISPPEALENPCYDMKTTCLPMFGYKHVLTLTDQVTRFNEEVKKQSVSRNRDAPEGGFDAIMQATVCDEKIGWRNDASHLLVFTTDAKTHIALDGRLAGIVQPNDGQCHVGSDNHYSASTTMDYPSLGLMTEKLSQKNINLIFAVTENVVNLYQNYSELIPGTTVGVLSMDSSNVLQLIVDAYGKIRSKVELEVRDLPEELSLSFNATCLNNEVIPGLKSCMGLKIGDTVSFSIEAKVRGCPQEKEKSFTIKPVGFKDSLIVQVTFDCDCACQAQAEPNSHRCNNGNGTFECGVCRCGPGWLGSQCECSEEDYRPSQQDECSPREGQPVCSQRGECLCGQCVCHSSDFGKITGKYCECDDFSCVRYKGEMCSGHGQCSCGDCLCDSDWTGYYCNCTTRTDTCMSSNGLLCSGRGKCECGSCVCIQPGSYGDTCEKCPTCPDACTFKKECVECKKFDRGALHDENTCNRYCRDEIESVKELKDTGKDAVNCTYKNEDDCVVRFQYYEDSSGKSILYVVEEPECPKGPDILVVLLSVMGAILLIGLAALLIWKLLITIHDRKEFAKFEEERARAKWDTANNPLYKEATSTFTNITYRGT
Test: Platelet Aggregation Assay
Format: cell-based
Details: human PRP; agonist-induced aggregation
Method: Blood was collected into 10 ml citrated Vacutainer tubes.

SMILES	IC50
CC(C)[C@H]1NC(=O)c2cccc(c2)CNC(=O)[C@H](CC(=O)O)N(C)C(=O)CNC(=O)[C@H](CCCNC(=N)N)N(C)C1=O [Example 64b, cyclo-(D-Val-NMeArg-Gly-NMeAsp-Mamb)]	1 to 10 µM
CC(C)[C@H]1NC(=O)Cc2cccc(c2)NC(=O)[C@H](CC(=O)O)NC(=O)CNC(=O)[C@H](CCCNC(=N)N)N(C)C1=O [Example 92, cyclo-(D-Val-NMeArg-Gly-Asp-3-aminophenylacetic acid)]	< 1 µM
CC[C@H]1NC(=O)c2ccc(I)c(c2)CNC(=O)[C@H](CC(=O)O)NC(=O)CNC(=O)[C@H](CCCNC(=N)N)N(C)C1=O [Example 89d, cyclo-(D-Abu-NMeArg-Gly-Asp-iodo-Mamb)] (cyclo([NMeR]GD[X5][dAbu]))	< 1 µM
CC(C)[C@H]1NC(=O)c2cccc(c2)CNC(=O)[C@@H](CC(=O)O)NC(=O)CNC(=O)[C@H](CCCNC(=N)N)N(C)C1=O [Example 64c, cyclo-(D-Val-NMeArg-Gly-D-Asp-Mamb)]	1 to 10 µM
CC(C)[C@H]1NC(=O)c2cc(ccc2Cl)CNC(=O)[C@H](CC(=O)O)NC(=O)CNC(=O)[C@H](CCCNC(=N)N)N(C)C1=O [Example 97, cyclo-(D-Val-NMeArg-Gly-Asp-3-aminomethyl-6-chlorobenzoic acid)]	< 1 µM
N=C(N)NCCC[C@@H]1NC(=O)CNC(=O)c2cccc(c2)CNC(=O)[C@H](CC(=O)O)NC(=O)CNC1=O [Example 29, cyclo-(Gly-Arg-Gly-Asp-Mamb)] (cyclo(RGD[3Amb]G))	1 to 10 µM
CC(C)[C@H]1NC(=O)c2ccccc2CNC(=O)[C@H](CC(=O)O)NC(=O)CNC(=O)[C@H](CCCNC(=N)N)N(C)C1=O [Example 91, cyclo-(D-Val-NMeArg-Gly-Asp-2-aminomethylbenzoic acid)]	< 1 µM
CC(C)[C@H]1NC(=O)c2ccc(Cl)c(c2)CNC(=O)[C@H](CC(=O)O)NC(=O)CNC(=O)[C@H](CCCNC(=N)N)N(C)C1=O [Example 93, cyclo-(D-Val-NMeArg-Gly-Asp-3-aminomethyl-4-chlorobenzoic acid)]	< 1 µM
N=C(N)NCCC[C@@H]1NC(=O)[C@@H](Cc2ccccc2)NC(=O)c2cccc(c2)CNC(=O)[C@H](CC(=O)O)NC(=O)CNC1=O [Example 36, cyclo-(D-Phe-Arg-Gly-Asp-Mamb)] (cyclo(RGD[3Amb][dF]))	10 to 100 µM
CC(C)[C@H]1NC(=O)c2ccc3c(c2)C(CCC3)NC(=O)[C@H](CC(=O)O)NC(=O)CNC(=O)[C@H](CCCNC(=N)N)N(C)C1=O (single isomer, unassigned) [Example 89b, cyclo-(D-Val-NMeArg-Gly-Asp-aminotetralincarboxylic acid)]	< 1 µM
N=C(N)NCCC[C@@H]1NC(=O)[C@H](Cc2ccccc2)NC(=O)c2cccc(c2)CNC(=O)[C@H](CC(=O)O)NC(=O)CNC1=O [Example 37, cyclo-(Phe-Arg-Gly-Asp-Mamb)] (cyclo(RGD[3Amb]F))	10 to 100 µM
N=C(N)NCCC[C@@H]1NC(=O)[C@@H](CO)NC(=O)c2cccc(c2)CNC(=O)[C@H](CC(=O)O)NC(=O)CNC1=O [Example 35, cyclo-(D-Ser-Arg-Gly-Asp-Mamb)] (cyclo(RGD[3Amb][dS]))	1 to 10 µM
CC(C)[C@H]1NC(=O)c2ccc3cccc(c3c2)CNC(=O)[C@H](CC(=O)O)NC(=O)CNC(=O)[C@H](CCCNC(=N)N)N(C)C1=O [Example 89c, cyclo-(D-Val-NMeArg-Gly-Asp-aminomethylnaphthoic acid)]	1 to 10 µM
CC(C)[C@H]1NC(=O)c2cccc(c2)CNC(=O)[C@H](CC(=O)O)NC(=O)CCNC(=O)[C@H](CCCNC(=N)N)N(C)C1=O [Example 54, cyclo-(D-Val-NMeArg-b-Ala-Asp-Mamb)] (cyclo([3Amb][dV][NMeR][βAla]D))	1 to 10 µM
CN1C(=O)[C@@H](CCCCN)NC(=O)c2cccc(c2)CNC(=O)[C@H](CC(=O)O)NC(=O)CNC(=O)[C@@H]1CCCNC(=N)N [Example 13f, cyclo-(D-Lys-NMeArg-Gly-Asp-Mamb)] (cyclo([NMeR]GD[3Amb][dK]))	< 1 µM
CN1CC(=O)N(C)[C@@H](CCCNC(=N)N)C(=O)NCC(=O)N[C@@H](CC(=O)O)C(=O)NCc2cccc(c2)C1=O [Example 18, cyclo-(NMeGly-NMeArg-Gly-Asp-Mamb)] (cyclo([NMeR]GD[3Amb][Sar]))	< 1 µM
CC(C)[C@H]1NC(=O)c2ccc(I)c(c2)CNC(=O)[C@H](CC(=O)O)NC(=O)CNC(=O)[C@H](CCCNC(=N)N)N(C)C1=O [Example 94, cyclo-(D-Val-NMeArg-Gly-Asp-iodo-Mamb)]	< 1 µM
CN1C(=O)[C@@H](Cc2ccccc2)NC(=O)c2cccc(c2)CNC(=O)[C@H](CC(=O)O)NC(=O)CNC(=O)[C@@H]1CCCNC(=N)N [Example 12, cyclo-(D-Phe-NMeArg-Gly-Asp-Mamb)] (cyclo([NMeR]GD[3Amb][dF]))	< 1 µM
CC(C)[C@H]1NC(=O)c2cccc(c2)CNC(=O)C(C)(CC(=O)O)NC(=O)CNC(=O)[C@H](CCCNC(=N)N)N(C)C1=O (single isomer, unassigned) [Example 63a, cyclo-(D-Val-NMeArg-Gly-α-MeAsp-Mamb)]	10 to 100 µM

SMILES	IC50
CC[C@@H](C)[C@H]1NC(=O)c2cccc(c2)CNC(=O)[C@H](CC(=O)O)NC(=O)CNC(=O)[C@H](CCCNC(=N)N)N(C)C1=O [Example 13r, cyclo-(D-Ile-NMeArg-Gly-Asp-Mamb)] (cyclo([NMeR]GD[3Amb][dI]))	< 1 µM
CN1C(=O)[C@@H](c2ccccc2)NC(=O)c2cccc(c2)CNC(=O)[C@H](CC(=O)O)NC(=O)CNC(=O)[C@@H]1CCCNC(=N)N [Example 11, cyclo-(D-Phg-NMeArg-Gly-Asp-Mamb)] (cyclo([NMeR]GD[3Amb][dPhg]))	< 1 µM
CC(C)[C@H]1NC(=O)c2cccc(c2)CNC(=O)[C@H](CC(=O)O)NC(=O)[C@H](C)NC(=O)[C@H](CCCNC(=N)N)N(C)C1=O [Example 58c, cyclo-(D-Val-NMeArg-L-Ala-Asp-Mamb)] (cyclo([3Amb][dV][NMeR]AD))	10 to 100 µM
CC(C)[C@H]1NC(=O)c2cccc(c2)CNC(=O)[C@H](CC(=O)O)NC(=O)CNC(=O)[C@@H](CCCNC(=N)N)N(C)C1=O [Example 4b, cyclo-(D-Val-D-NMeArg-Gly-Asp-Mamb)]	1 to 10 µM
CN1C(=O)CNC(=O)c2cccc(c2)CNC(=O)[C@H](CC(=O)O)NC(=O)CNC(=O)[C@@H]1CCCNC(=N)N [Example 1, cyclo-(Gly-NMeArg-Gly-Asp-Mamb)] (cyclo([NMeR]GD[3Amb]G))	< 1 µM
CC(C)[C@H]1NC(=O)c2cccc(c2)CNC(=O)C(C)(CC(=O)O)NC(=O)CNC(=O)[C@H](CCCNC(=N)N)N(C)C1=O (single isomer, unassigned) [Example 63, cyclo-(D-Val-NMeArg-Gly-α-MeAsp-Mamb)]	1 to 10 µM
CN1C(=O)[C@H]2CCCN2C(=O)c2cccc(c2)CNC(=O)[C@H](CC(=O)O)NC(=O)CNC(=O)[C@@H]1CCCNC(=N)N [Example 25, cyclo-(D-Pro-NMeArg-Gly-Asp-Mamb)] (cyclo([NMeR]GD[3Amb][dP]))	< 1 µM
C[C@H]1NC(=O)c2cccc(c2)CNC(=O)[C@H](CC(=O)O)NC(=O)CNC(=O)[C@H](CCCNC(=N)N)N(C)C1=O [Example 2, cyclo-(D-Ala-NMeArg-Gly-Asp-Mamb)] (cyclo([NMeR]GD[3Amb][dA]))	< 1 µM
CC[C@H]1NC(=O)c2cc(ccc2Cl)CNC(=O)[C@H](CC(=O)O)NC(=O)CNC(=O)[C@H](CCCNC(=N)N)N(C)C1=O [Example 100a, cyclo-(D-Abu-NMeArg-Gly-Asp-3-aminomethyl-6-chlorobenzoic acid)] (cyclo([NMeR]GD[X4][dAbu]))	< 1 µM
C[C@H]1NC(=O)c2cccc(c2)CNC(=O)[C@H](CC(=O)O)NC(=O)CNC(=O)[C@H](CCCNC(=N)N)NC1=O [Example 30, cyclo-(D-Ala-Arg-Gly-Asp-Mamb)] (cyclo(RGD[3Amb][dA]))	1 to 10 µM
CC[C@H]1NC(=O)c2cc(ccc2C)CNC(=O)[C@H](CC(=O)O)NC(=O)CNC(=O)[C@H](CCCNC(=N)N)N(C)C1=O [Example 100c, cyclo-(D-Abu-NMeArg-Gly-Asp-3-aminomethyl-6-methylbenzoic acid)] (cyclo([NMeR]GD[X3][dAbu]))	< 1 µM
CC[C@H]1NC(=O)c2cccc(c2)CNC(=O)[C@H](CC(=O)O)NC(=O)CNC(=O)[C@H](CCCNC(=N)N)NC1=O [Example 34, cyclo-(D-Abu-Arg-Gly-Asp-Mamb)] (cyclo(RGD[3Amb][dAbu]))	1 to 10 µM
CN1C(=O)[C@@H](Cc2ccc(O)cc2)NC(=O)c2cccc(c2)CNC(=O)[C@H](CC(=O)O)NC(=O)CNC(=O)[C@@H]1CCCNC(=N)N [Example 28f, cyclo-(D-Tyr-NMeArg-Gly-Asp-Mamb)] (cyclo([NMeR]GD[3Amb][dY]))	< 1 µM
CCCC[C@H]1NC(=O)c2cccc(c2)CNC(=O)[C@H](CC(=O)O)NC(=O)CNC(=O)[C@H](CCCNC(=N)N)N(C)C1=O [Example 7, cyclo-(D-Nle-NMeArg-Gly-Asp-Mamb)] (cyclo([NMeR]GD[3Amb][dNle]))	< 1 µM
CN1C(=O)CCNC(=O)c2cccc(c2)CNC(=O)[C@H](CC(=O)O)NC(=O)CNC(=O)[C@@H]1CCCNC(=N)N [Example 28c, cyclo-(b-Ala-NMeArg-Gly-Asp-Mamb)] (cyclo([NMeR]GD[3Amb][βAla]))	< 1 µM
CC(C)[C@H]1NC(=O)c2cccc(c2)CNC(=O)[C@H](CC(=O)O)NC(=O)CNC(=O)[C@H](CCCNC(=N)N)NC1=O [Example 32, cyclo-(D-Val-Arg-Gly-Asp-Mamb)]	1 to 10 µM
CC[C@H]1NC(=O)c2cccc(c2)CNC(=O)[C@H](CC(=O)O)NC(=O)CNC(=O)[C@H](CCCNC)N(C)C1=O [Example 89e, cyclo-(D-Abu-di-NMeOrn-Gly-Asp-Mamb)] (cyclo([dAbu][NMeOrn(Me)]GD[3Amb]))	1 to 10 µM
CC(C)[C@H]1NC(=O)c2cccc(c2)CNC(=O)[C@H](CC(=O)O)NC(=O)CNC(=O)[C@H](Cc2ccc(CN)cc2)N(C)C1=O [Example 40, cyclo-(D-Val-NMeAmf-Gly-Asp-Mamb)] (cyclo([dV][NMePhe(4-CH2NH2)]GD[3Amb]))	< 1 µM
CC(C)C[C@H]1NC(=O)c2cccc(c2)CNC(=O)[C@H](CC(=O)O)NC(=O)CNC(=O)[C@H](CCCNC(=N)N)NC1=O [Example 33, cyclo-(D-Leu-Arg-Gly-Asp-Mamb)] (cyclo(RGD[3Amb][dL]))	1 to 10 µM
